Where two headings read alike, the source gives them in different places.

Series [1] has as its system WM1366. As to the kind of experiment: Colony growth assay, WM1366. To be noted: Homo sapiens, WM1366, RAS Q61L. The series is classed as cell-based. The text has this:
(§1) FIG. 1. […] All other lines are BRAF wild-type and have activating mutations in RAS.
(§2) While oncogene-induced senescence due to overexpressed mutant RAS is an important tumor suppression mechanism, multiple variants of senescence exist (Ito, Y., et al. Trends Cell Biol 27:820-832 (2017); Lasry, A. & Ben-Neriah, Y. Trends Immunol 36:217-28 (2015); Ewald, J. A., et al. J Natl Cancer Inst 102:1536-46 (2010); Mooi, W. J. & Peeper, D.S. N Engl J Med. 355:1037-46 (2006)). With this in mind, experiments were conducted to determine whether paradoxical ERK activation, as driven by BRAFi exposure in the context of RAS-mutant cancers, could cause elevation of ERK pathway signaling to the point of causing senescence-like growth arrest akin to oncogene-induced senescence. To determine the effects of BRAFi treatment on RAS-mutant melanomas, a panel of four BRAFi were screened against eight RAS-mutant melanoma cell lines. the FDA-approved BRAFi vemurafenib, dabrafenib, encorafenib (Dummer, R., et al. J Clin Oncol 31(2013)), and the ‘paradox-breaker PLX8394, which was designed to elicit no paradoxical ERK activation (Zhang, C., et al. Nature 526:583-6 (2015)) were tested.

The test system of series [2] is CP66. As to the kind of experiment: Colony growth assay, CP66. The series is classed as cell-based. Conditions: Homo sapiens, CP66, RAS Q61K.
Text: as §1, §2

The conditions of series [3]: cited from earlier work; for induction of cutaneous squamous cell carcinoma (cuSCC), patients: treated patients, averaged across multiple studies.
Series [4] has as its system 501mel. In words: Colony growth assay, 501mel. In kind it is cell-based. To be noted: Homo sapiens, RAS G12D.
Text: as §1, §2

The test system of series [5] is Sk-mel-119. As to the kind of experiment: Colony growth assay, Sk-mel-119. In kind it is cell-based. Conditions: Homo sapiens, Sk-mel-119, RAS Q61R.
Text: as §1, §2

The test system of series [6] is MelJUSO. In words: Colony growth assay, MelJUSO. The series is classed as cell-based. To be noted: Homo sapiens, MEL-JUSO, RAS Q61L (HRASG13D).
Text: as §1, §2

The subject of series [7] is A375. As to the kind of experiment: Colony growth assay, A375 (BRAF mutant positive control). The series is classed as cell-based. To be noted: Homo sapiens, A-375.
Text: as §1, §2

Series [8] concerns Sk-mel-2. As to the kind of experiment: Colony growth assay, Sk-mel-2. In kind it is cell-based. Conditions: Homo sapiens, Sk-mel-2, RAS Q61R.
Text: as §1, §2

For series [9], the system named is ICP 298. In words: Colony growth assay, ICP 298. In kind it is cell-based. To be noted: Homo sapiens, ICP 298, RAS Q61L.
Text: as §1, §2

Series [10] concerns GAK. In words: Colony growth assay, GAK. In kind it is cell-based. Conditions: Homo sapiens.
Text: as §1, §2

The test system of series [11] is RAS-mutant melanoma cell lines. In words: BRAFi screen against panel of RAS-mutant melanoma cell lines. Conditions: for IC50: Homo sapiens, four 'BRAFi sensitive' RAS-mutant cell lines, read-out: IC50, growth inhibition. The series is classed as cell-based, human.
Text: as §1, §2

Series [12] has as its system IL-6 secretion, 501 MEL melanoma cell lines. In words: IL-6 secreted in the media of 501 MEL cells. In kind it is cell-based, human. Conditions: acute 24 hours or chronic 7 days, vs control-treated. The text has this:
Substantial increases in the secretion of this canonical senescence-associated cytokine are reliably measured in all settings, up to 3-fold in magnitude, showing essential features of the ERK-hyperactivation mediated senescence response.

Series [13] concerns NRASQ61R-mutant melanoma cells (C57BL/6). As to the kind of experiment: Transplanted NRASQ61R-mutant melanoma model in C57BL/6 mice. The series is classed as in vivo, mouse. Conditions: dabrafenib 3.5 mg/kg/day, RMP1-14 thrice weekly, start day 7. On the procedure: FIG. 11. Transplanted NRASQ61R-mutant melanoma cells (C57BL/6) regress when dabrafenib-induced PEASA is combined with anti-PD1 immunotherapy. 1 million melanoma cells were injected in both flanks of C57BL/6 mice and therapy started at 7 days. […] mice per condition across 2 independent trials; mean tumor volume +/−SEM.
Because senescence is associated with a specific inflammatory gene expression signature, RNAseq was used to characterize responsive NRAS-mutant cell lines (IPC298, SK-MEL-119) following BRAFi exposure.

The subject of series [14] is IPC 298 and 501mel cell line xenografts. As to the kind of experiment: IPC 298 and 501mel cell line xenografts in mice. The series is classed as in vivo, mouse. Conditions: 3.5 mg/kg daily; NOD/SCID gamma or athymic nude mice. How it is done: FIG. 4. […] (A) IPC 298 cell line xenografts were established in NOD/SCID gamma mice by co-injecting 1 million IPC 298 cells subcutaneously. Daily treatment with vehicle (n=20) or 3.5 mg/kg dabrafenib (n=20) was initiated at ‘Day 0,’ or 7 days post injection. Tumor volume was tracked by caliper measurement, calculated using V=½lw2. Student's t-test compares differences in tumor volumes at sacrifice in both conditions versus vehicle control (B) Representative image of mice from (A) at experimental endpoint. (C) Phospho-ERK western-blotting of tumor lysates from a short-term pharmacodynamic experiment from IPC 298 lysates harvested from mice treated orally with vehicle or 3.5 mg/kg dabrafenib for 5 days. (D) 501mel cell line xenografts were established in athymic nude mice by co-injecting 4 million 501mel cells mixed with 1 million normal dermal fibroblasts (NDF) per site. Mice were treated with vehicle (n=11) or 3.5 mg/kg dabrafenib (n=10), 12 days post injection. As engraftment with 501mel/NDF is inefficient, only tumors with diameters >3 mm at treatment initiation are detailed here. Student's t-test compares differences in tumor volumes at sacrifice in both conditions versus vehicle control. (E) Representative image of mice from (D) at experimental endpoint. […] Quantitative data represent at least three independent experiments. […]

For series [15] the following is noted: in vivo; cited from earlier work.
Where [16] appears, read: A375, RAS WT (BRAFV600E), colony growth, read-out: IC50.
Setting [17] is: GAK, RAS Q61K, colony growth, read-out: IC50.

As for `CCCS(=O)(=O)Nc1ccc(F)c(C(=O)c2c[nH]c3ncc(-c4ccc(Cl)cc4)cc23)c1F` [Vemurafenib], the IC50 – broadly, the point on the concentration scale where inhibition reaches its midpoint – in series [1] is > 6600 nM; in series [2] it was > 6600 nM; in series [4], 3000 nM; in series [5], 540 nM; in [6] it was > 6600 nM; in [7] (setting [16]), 68 nM. For the same compound, the IC50 in series [8] worked out at 2500 nM; in series [9], 380 nM; in series [10], 5300 nM. In addition, the “cuSCC harboring activating RAS mutations” value in series [3] (cuSCC from treated patients, 10-20% in sporadic cuSCC) is listed as “Approximately 60%”. Moreover, the “induction of cutaneous squamous cell carcinoma (cuSCC), patients” value in series [3] was 22%.
With `O=C(c1c(F)ccc(NS(=O)(=O)N2CC[C@@H](F)C2)c1F)c1c[nH]c2ncc(-c3cnc(C4CC4)nc3)cc12` [PLX8394], the IC50 is > 1000 nM in [1]; > 1000 nM in [2]; > 1000 nM in series [4]; > 1000 nM in series [5]; > 1000 nM in series [6]; 180 nM in [7] (setting [16]). In addition, the IC50 in [8], in series [9] and in [10] (setting [17]) was > 1000 nM in each case. In addition, the “activity against RAS mutant cell lines” value in series [11] (RAS mutant cell lines) is reported as “never showed activity”.
For the compound `CC(C)(C)c1nc(-c2cccc(NS(=O)(=O)c3c(F)cccc3F)c2F)c(-c2ccnc(N)n2)s1` [Dabrafenib], in series [12], the “increase in secretion of IL-6” value is “up to 3 fold”. Besides, the concentration for half-maximal inhibition (IC50) in series [1] was > 5000 nM; in [2], 1000 nM; in [4], 21 nM; in [5], 1.8 nM; in series [6] it was 100 nM; in series [7], 2.5 nM. Moreover, the half-inhibitory concentration (IC50) in [8] is 240 nM; in series [11] it was < 100 nM; in series [9], 31 nM; in [10] (setting [17]) it was 700 nM. Further, the “tumor response (tumor volume)” value in series [13] is listed as “partial responses, but progressive disease”. The “induction of cutaneous squamous cell carcinoma (cuSCC), patients” value in series [3] is on record as 6%. Moreover, in series [14], the “tumor growth in vivo” value is “prevents RAS-mutant tumor growth”.
Consider `COC(=O)N[C@@H](C)CNc1nccc(-c2cn(C(C)C)nc2-c2cc(Cl)cc(NS(C)(=O)=O)c2F)n1` [Encorafenib], for which the IC50 in series [1] is > 2000 nM; in [2], 520 nM; in series [4], 7.5 nM; in series [5], 0.49 nM; in series [6], 26 nM; in series [7] (setting [16]), 0.71 nM. Besides, the IC50 in [8] was 550 nM; in [11] it was < 100 nM; in [9], 0.9 nM; in [10] (setting [17]) it was 1600 nM. Besides, the plasma elimination half-life entry in series [15] is on record as “approximately 6 hours”.

Values taken from patent publication US20220288201A1, “COMBINATION THERAPY FOR TREATING RAS-MUTANT CANCERS” (H. Lee Moffitt Cancer and Research Institute, Inc., priority 2019, published 2022).
